Patent US20120064135A1, “Benzoyl Peroxide Composition, Methods for Making Same, and Pharmaceutical or Cosmetic Formulations Comprising Same, and Uses Thereof” (Norac Pharma, priority 2010, published 2012)

Legend:
[1] = cited from earlier work
[2] = Stability of clindamycin hydrochloride mixed with BP-CB or BPO, stored in vials at 30° C., HPLC peak area; format: physicochemical; details: after 216 h at 30° C.
Description: The stability of the benzoyl peroxide (BP-CB) formulation of the present invention is compared with benzoyl peroxide (BPO) in non-invention drug formulations. In one study, clindamycin hydrochloride is used as the API. Clindamycin hydrochloride and BP-CB or BPO are placed in vials and stored at 30° C. The vials are analyzed by HPLC and the area from the clindamycin hydrochloride peak is monitored. […] These values are in comparison to the area from the T0 results. BPO Study—Into clear one dram vials is placed hydrous benzoyl peroxide (26 mg, 75.0% by wt) and clindamycin hydrochloride (20 mg). The contents are mixed thoroughly. Then the vials are stored at 30° C. BP-CB Study—Into clear one dram vials is placed BP-CB (30 mg, 65% BPO by wt) and clindamycin hydrochloride (20 mg). The contents are mixed thoroughly then the vials are stored at 30° C. Analysis—At certain time points, the vials are analyzed by HPLC. Prior to analysis, a mixture of methanol and acetonitrile (10 mL total, 1:1 by volume) is added to dissolve the contents of the vial. The solution is used for HPLC analysis. For T0, a vial is removed and analyzed before the samples are heated to 30° C. • To prepare 1 L solution, transfer 1000 mL DI water into a suitable reservoir. Add 6.81 g of KH2PO4, and then adjust pH to 3.1 with H3PO4. Mix well. Degas solution thoroughly before use. [table]

[3] = Stability of tazarotene with BP-CB or BPO in polyacrylic acid gel, stored at 30° C., HPLC peak area; format: physicochemical; details: after 834 h at 30° C.; with tazarotene in polyacrylic acid (PAA) gel
Description: These stability studies are set up to examine BP-CB/BPO with various APIs in aqueous gel formulations. In one study, tazarotene is used as the API. Tazarotene and BP-CB or BPO are placed into a polyacrylic acid (PAA) gel in vials and stored at 30° C. The vials are analyzed by HPLC and the area from the tazarotene peak is monitored. […] These values are compared on the area from the To results.
(§1) BPO Study—Polyacrylic acid gel is prepared by stirring polyacrylic acid (2.5 g) in deionized water (100 mL) at 50° C. for 2 h. The gel is allowed to cool to ambient temperature. The gel (500 mg) is weighed out into each of the 4-dram vials. Into the same vials is placed hydrous benzoyl peroxide (390 mg, 74.6% by wt) and tazarotene (375 mg). The contents are mixed thoroughly then the vials are stored at 30° C.
as §1, with “BP-CB” for “BPO”, “BP-CB (447” for “hydrous benzoyl peroxide (390”, “65% BPO” for “74.6%”
Analysis—At certain time points, the vials are analyzed by HPLC. […] For To, a vial is removed and analyzed before the samples are heated to 30° C. […]

Row | SMILES | pKa [1] | decrease of HPLC area of the clindamycin hydrochloride peak in comparison to T0 [2] | decrease of HPLC area of the tazarotene peak compared to T0 [3]
1 | CC1=C(/C=C/C(C)=C/C=C/C(C)=C/C(=O)O)C(C)(C)CCC1 [tretinoin] | 3.8 |  | 
2 | O=C(OOC(=O)c1ccccc1)c1ccccc1 [BPO, benzoyl peroxide] |  | 87.0% | 88%
